Test results taken from the supplement of paper PMC10307832.

How the values were obtained:
Experiment in all cases: relative viability (nuclei count vs DMSO), 5 days (fraction); higher = more cells survive
NCI-H661 = tested on: NCI-H661
In short: (§1)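 Lung cancer cell lines were seeded in 1536-well plates and dosed by pin tool the next day, with either a single drug or a fixed anchor-drug dose combined with five library-drug doses (not always all listed) spaced in √10 steps. Five days later, one step fixed the cells and stained their nuclei (final 0.05% Triton X-100, 1% formaldehyde, 1 ug/ml Hoechst), and nuclei were counted on 4× images. Relative viability is the nuclei count in treated wells divided by the count in vehicle wells, and each value is the median of duplicate plates.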

NCI-H1651 = tested on: NCI-H1651
In short: as §1

NCI-H2085 = tested on: NCI-H2085
In short: as §1

NCI-H2087 = tested on: NCI-H2087
In short: as §1

NCI-H322M = tested on: NCI-H322M
In short: as §1

PC-14 = tested on: PC-14
In short: as §1

PC-3 [JPC-3] = tested on: PC-3 [JPC-3]
In short: as §1

H3255 = tested on: H3255
In short: as §1

CAL-12T = tested on: CAL-12T
In short: as §1

LCLC-97TM1 = tested on: LCLC-97TM1
In short: as §1

NCI-H1666 = tested on: NCI-H1666
In short: as §1

NCI-H1395 = tested on: NCI-H1395
In short: as §1

LK-2 = tested on: LK-2
In short: as §1

SK-MES-1 = tested on: SK-MES-1
In short: as §1

NCI-H1355 = tested on: NCI-H1355
In short: as §1

A-427 = tested on: A-427
In short: as §1

UMC-11 = tested on: UMC-11
In short: as §1

NCI-H1792 = tested on: NCI-H1792
In short: as §1

NCI-H358 = tested on: NCI-H358
In short: as §1

NCI-H2228 = tested on: NCI-H2228
In short: as §1

NCI-H838 = tested on: NCI-H838
In short: as §1

NCI-H1915 = tested on: NCI-H1915
In short: as §1

`O=c1[nH]c2ccccc2n1C1CCN(CCCC(c2ccc(F)cc2)c2ccc(F)cc2)CC1` [Pimozide] + CC(=O)Nc1cccc(-n2c(=O)n(C3CC3)c(=O)c3c(Nc4ccc(I)cc4F)n(C)c(=O)c(C)c32)c1 [Trametinib] (partner 0.02 µM) showed a relative viability (NCI-H661; first compound 0.08 µM) of 0.598, a relative viability (NCI-H661; first compound 0.253 µM) of 0.583 and a relative viability (NCI-H661; first compound 0.8 µM) of 0.498. The relative viability (NCI-H661; first compound 2.53 µM) was 0.492, the relative viability (NCI-H661; first compound 8 µM) was 0.409 and the relative viability (NCI-H1651; first compound 0.08 µM) was 0.833. For the same compound, the relative viability (NCI-H1651; first compound 0.253 µM) was 0.79, the relative viability (NCI-H1651; first compound 0.8 µM) was 0.829 and the relative viability (NCI-H1651; first compound 2.53 µM) was 0.82. For the same compound, the relative viability (NCI-H1651; first compound 8 µM) was 0.853, the relative viability (NCI-H2085; first compound 0.08 µM) was 0.659 and the relative viability (NCI-H2085; first compound 0.253 µM) was 0.625. It also gave a relative viability (NCI-H2085; first compound 0.8 µM) of 0.583, a relative viability (NCI-H2085; first compound 2.53 µM) of 0.404 and a relative viability (NCI-H2085; first compound 8 µM) of 0.399. For the same compound, the relative viability (NCI-H2087; first compound 0.08 µM) was 0.243, the relative viability (NCI-H2087; first compound 0.253 µM) was 0.24 and the relative viability (NCI-H2087; first compound 2.53 µM) was 0.179. For the same compound, the relative viability (NCI-H2087; first compound 8 µM) was 0.205, the relative viability (NCI-H322M; first compound 0.08 µM) was 0.402 and the relative viability (NCI-H322M; first compound 0.253 µM) was 0.505. The relative viability (NCI-H322M; first compound 0.8 µM) was 0.538, the relative viability (NCI-H322M; first compound 2.53 µM) was 0.546 and the relative viability (NCI-H322M; first compound 8 µM) was 0.54. The relative viability (PC-14; first compound 0.253 µM) was 0.622, the relative viability (PC-14; first compound 0.8 µM) was 0.686 and the relative viability (PC-14; first compound 2.53 µM) was 0.607. For the same compound, the relative viability (PC-14; first compound 8 µM) was 0.62, the relative viability (PC-3 [JPC-3]; first compound 0.253 µM) was 0.683 and the relative viability (PC-3 [JPC-3]; first compound 0.8 µM) was 0.651. For the same compound, the relative viability (PC-3 [JPC-3]; first compound 2.53 µM) was 0.656, the relative viability (PC-3 [JPC-3]; first compound 8 µM) was 0.607 and the relative viability (H3255; first compound 0.253 µM) was 0.577. For the same compound, the relative viability (H3255; first compound 0.8 µM) was 0.562, the relative viability (H3255; first compound 2.53 µM) was 0.564 and the relative viability (H3255; first compound 8 µM) was 0.623. For the same compound, the relative viability (CAL-12T; first compound 0.08 µM) was 0.326, the relative viability (CAL-12T; first compound 0.253 µM) was 0.291 and the relative viability (CAL-12T; first compound 0.8 µM) was 0.34. It also gave a relative viability (CAL-12T; first compound 2.53 µM) of 0.272, a relative viability (CAL-12T; first compound 8 µM) of 0.251 and a relative viability (LCLC-97TM1; first compound 0.08 µM) of 0.191. It also gave a relative viability (LCLC-97TM1; first compound 0.253 µM) of 0.189, a relative viability (LCLC-97TM1; first compound 0.8 µM) of 0.166 and a relative viability (LCLC-97TM1; first compound 2.53 µM) of 0.185. For the same compound, the relative viability (LCLC-97TM1; first compound 8 µM) was 0.207, the relative viability (NCI-H1666; first compound 0.08 µM) was 0.888 and the relative viability (NCI-H1666; first compound 0.253 µM) was 0.804. For the same compound, the relative viability (NCI-H1666; first compound 0.8 µM) was 0.835, the relative viability (NCI-H1666; first compound 2.53 µM) was 0.866 and the relative viability (NCI-H1666; first compound 8 µM) was 0.787. The relative viability (NCI-H1395; first compound 0.08 µM) was 0.929, the relative viability (NCI-H1395; first compound 0.253 µM) was 0.924 and the relative viability (NCI-H1395; first compound 0.8 µM) was 0.993. The relative viability (NCI-H1395; first compound 2.53 µM) was 1.09, the relative viability (NCI-H1395; first compound 8 µM) was 0.916 and the relative viability (LK-2; first compound 0.08 µM) was 0.717. The relative viability (LK-2; first compound 0.253 µM) was 0.826, the relative viability (LK-2; first compound 0.8 µM) was 0.749 and the relative viability (LK-2; first compound 2.53 µM) was 0.492. The relative viability (LK-2; first compound 8 µM) was 0.727, the relative viability (SK-MES-1; first compound 0.08 µM) was 0.533 and the relative viability (SK-MES-1; first compound 0.253 µM) was 0.517. For the same compound, the relative viability (SK-MES-1; first compound 0.8 µM) was 0.508, the relative viability (SK-MES-1; first compound 2.53 µM) was 0.744 and the relative viability (SK-MES-1; first compound 8 µM) was 0.441. The relative viability (NCI-H1355; first compound 0.08 µM) was 0.382, the relative viability (NCI-H1355; first compound 0.253 µM) was 0.428 and the relative viability (NCI-H1355; first compound 0.8 µM) was 0.411. The relative viability (NCI-H1355; first compound 2.53 µM) was 0.39, the relative viability (NCI-H1355; first compound 8 µM) was 0.454 and the relative viability (A-427; first compound 0.08 µM) was 0.771. For the same compound, the relative viability (A-427; first compound 0.253 µM) was 0.75, the relative viability (A-427; first compound 0.8 µM) was 0.701 and the relative viability (A-427; first compound 2.53 µM) was 0.682. It also gave a relative viability (A-427; first compound 8 µM) of 0.68, a relative viability (UMC-11; first compound 0.08 µM) of 0.602 and a relative viability (UMC-11; first compound 0.253 µM) of 0.675. The relative viability (UMC-11; first compound 0.8 µM) was 0.655, the relative viability (UMC-11; first compound 2.53 µM) was 0.681 and the relative viability (UMC-11; first compound 8 µM) was 0.918. For the same compound, the relative viability (NCI-H1792; first compound 0.08 µM) was 0.466, the relative viability (NCI-H1792; first compound 0.253 µM) was 0.412 and the relative viability (NCI-H1792; first compound 0.8 µM) was 0.36. It also gave a relative viability (NCI-H1792; first compound 2.53 µM) of 0.393, a relative viability (NCI-H1792; first compound 8 µM) of 0.454 and a relative viability (NCI-H358; first compound 0.08 µM) of 0.135. The relative viability (NCI-H358; first compound 0.253 µM) was 0.147, the relative viability (NCI-H358; first compound 0.8 µM) was 0.137 and the relative viability (NCI-H358; first compound 2.53 µM) was 0.13. It also gave a relative viability (NCI-H358; first compound 8 µM) of 0.126, a relative viability (NCI-H2228; first compound 0.08 µM) of 0.514 and a relative viability (NCI-H2228; first compound 0.253 µM) of 0.475. For the same compound, the relative viability (NCI-H2228; first compound 0.8 µM) was 0.522, the relative viability (NCI-H2228; first compound 2.53 µM) was 0.418 and the relative viability (NCI-H2228; first compound 8 µM) was 0.167. The relative viability (NCI-H838; first compound 0.08 µM) was 0.536, the relative viability (NCI-H838; first compound 0.253 µM) was 0.561 and the relative viability (NCI-H838; first compound 0.8 µM) was 0.482. It also gave a relative viability (NCI-H838; first compound 2.53 µM) of 0.528, a relative viability (NCI-H838; first compound 8 µM) of 0.571 and a relative viability (NCI-H1915; first compound 0.08 µM) of 0.293. The relative viability (NCI-H1915; first compound 0.253 µM) was 0.296, the relative viability (NCI-H1915; first compound 2.53 µM) was 0.296 and the relative viability (NCI-H1915; first compound 8 µM) was 0.287.
